Reference: patent US20240261359A1, “PHARMACEUTICAL COMPOSITION FOR USE PREVENTING AND CURING RESPIRATORY DISEASES IN WINTER” (Tianjin University of Traditional Chinese Medicine, priority 2020, published 2024)

Legend:
[1] = tested on: rats suffered from acute pharyngitis caused by Staphylococcus aureus; assay: Pathological morphology of pharyngeal tissues (HE staining), rat acute pharyngitis model; format: in vivo, SD rats; conditions: HE sections, FIG. 2A-2D
Procedure: Material taking: rats were anesthetized and pharyngeal tissues were taken and fixed in 4% paraformaldehyde for more than 24 h. The tissues were taken from the fixing solution and in a fume hood, the tissues at the target region were trimmed with a surgical knife. The trimmed tissues and the corresponding tags were placed in a dehydration box.
Dehydration: the dehydration was conducted by placing the dehydration box in a hanging basket, and in a dehydration machine, the dehydration was conducted with alcohols with gradient concentrations in order. 75% alcohol 1 h-85% alcohol 1 h-90% alcohol 1 h-95% alcohol 1 h-anhydrous ethanol I 30 min-anhydrous ethanol II 30 min-alcohol benzene 5-10 min-xylene I 5-10 min-xylene II 5-10 min-wax I 1 h-wax II 1 h-wax III 1 h.
Embedding: the tissues immersed with wax were embedded in an embedding machine. The molten wax was placed in an embedding frame first, and before it was solidified, the tissues were taken from the dehydration box and placed in the embedding frame according to requirements on embedded faces and corresponding tags were attached. They were cooled on a freezing table at −20° C., and after wax solidification, the wax block was taken from the embedding frame and trimmed.
Slicing: the trimmed wax block was sliced on a paraffin slicing machine, in a thickness of 4 μm. […]

[2] = tested on: rats suffered from acute pharyngitis caused by Staphylococcus aureus; assay: Peripheral white blood cell count and classification, rat acute pharyngitis model; format: in vivo, SD rats; conditions: composition 3.5 g/kg, amoxicillin 0.36 g/kg, x ± s, n = 7
From the text: Before each group of animals were scarified, blood was taken by cutting tails and smeared on plates to conduct routine blood examinations about number of white blood cells, lymphocyte percentages and neutrophils percentages.

[3] = tested on: rats suffered from acute pharyngitis caused by Staphylococcus aureus; assay: Appearance behavior scoring and thymus weight, rat acute pharyngitis model caused by Staphylococcus aureus; format: in vivo, SD rats; conditions: ig, composition 3.5 g/kg, amoxicillin 0.36 g/kg, x ± s, n = 7
Procedure: Formulations of medicinal solutions: before the test, distilled water was used to formulate a medicinal solution with a concentration of 0.35 g/ml, which was intragastrically administrated in 1 ml/100 g body weight/time, 2 times/day, and on 7th day after pre-administrations, modelling was started and the intragastric administration was continued for 5 days.
On 1st day, at 1 h after Staphylococcus aureus infection, the positive medicinal group was intragastrically administrated at a dose of 0.36 g/kg (equivalently equal to the clinical dose of a human), 1 time/day for 5 consecutive days.
With scoring standard (from Standards for Preparation of Animal Models Suffered from Acute Pharyngitis, enacted by Traditional Chinese medicine Experimental Pharmacology Professional Committee of Traditional Chinese Medicine Institute, Traditional Chinese Medicine Pharmacology and Clinics 2018; 34 (1)), according to weights, mobility, fur color and gloss of rats, they were classified into 4 grades, as shown in the following Table 4.

[4] = tested on: rats suffered from acute pharyngitis caused by Staphylococcus aureus; assay: Inflammatory factors in rat serum by ELISA, rat acute pharyngitis model; format: in vivo, SD rats; conditions: composition 3.5 g/kg, amoxicillin 0.36 g/kg, x ± s, n = 7
Procedure: Rates were anesthetized. Blood was taken from abdominal aorta and injected into a procoagulant tube, standing for 45 min at room temperature, and it was centrifuged at 3500 rpm for 10 min. The supernatant was suction taken into a sterile EP tube and stored at −80° C. Before measurements, the samples were re-thawed at room temperature, and the IL-1β, IL-6 and TNF-α levels in serum were measured by enzyme-linked immunosorbent assay (ELISA). The operations were carried out according to the instruction of the kit, and each index was detected by an enzyme-labelled meter at the absorbance 450 nm.

[5] = tested on: rats suffered from acute pharyngitis caused by Staphylococcus aureus; assay: Scoring of pharyngeal lesions, rat acute pharyngitis model; format: in vivo, SD rats; parameters: key to Pharyngeal inflammatory response grade of most animals: −: pharyngeal tissues were in light red color, and they had moist and glossy surfaces, and no secreted substances, no congestion, no swelling and other pathological phenomena; +: the mucosa in the pharynx had poor gloss, and there were a small amount of secreted substances, and slight congestions and swelling; ++: the mucosa in the pharynx was in a dark red color and poor in the gloss, and secreted substances exist therein, accompanying by moderate congestions and swelling and other phenomena; +++: the mucosa in the pharynx exhibited a dark red color, increased secretion of mucus, and evident congestion and swelling
NF-κB = format: cell-based; conditions: dexamethasone 10 μM with TNF-α, 6 h; L/S; x ± SD, n = 18; model 4641.34, control 17.46
Procedure: (§1) The 293T cells in the logarithmic growth phase were taken and inoculated into a 96-well cell culture plate at a density of 2×10^5 cell/mL, and after growth along the walls to 70-80%, a PEI (1 mg/ml) transfecting agent was used to simultaneously transfect them with ARE and NF-κB luciferase reporter plasmids pGL4.37, pGL4.32 (100 ng/well) and a renilla luciferase reported plasmid pGL4.75 (10 ng/well), and they were cultured for 24 h.
(§2) After 24-h culture, the cells transfected with the ARE luciferase reporter plasmid pGL4.37 are added with tBHQ (10 μM) and safety concentrations of the sample solutions of the individual inventive pharmaceutical composition groups, and by setting a control group, and they were cultured 6 h; the cells transfected with NF-kB luciferase reporter plasmid pGL4.32 were respectively added with dexamethasone (10 μM) diluted by a TNF-α complete culture medium, and safety concentrations of the sample solutions of the individual inventive pharmaceutical composition groups, and by setting a control group, and a model group, and they were cultured for 6 h. The supernatant was discarded, and the cells were rinsed with PBS. After splitting, they were detected by using a Dual-Luciferase detection system. Each set of experiments were configured with 6 compound wells, with 3 repetitions. […]

ARE = ARE luciferase reporter gene activity in transfected 293T cells; format: cell-based; conditions: tBHQ 10 μM, 6 h; relative luciferase activity L/S; x ± SD, n = 18; control 0.76
Procedure: as §1, §2

[6] = of 7 rats, composition 3.5 g/kg, amoxicillin 0.36 g/kg

CC1(C)S[C@@H]2[C@H](NC(=O)[C@H](N)c3ccc(O)cc3)C(=O)N2[C@H]1C(=O)O [Amoxicillin]
Pathological morphology of pharyngeal tissues (inflammatory cell infiltration, mucosa recovery) [1]: very similar to those in the inventive pharmaceutical composition group
L (%), percentages of lymphocytes [2]: 76.37 ± 7.42 %
N (%), percentages of neutrophils [2]: 19.5 ± 6.77 %
WBC (×10^9/L), white cells [2]: 8.17 ± 30^ ×10^9/L
Thymus gland [3]: 0.26 ± 0.11 g
Fur gloss (appearance behavior score) ([3]; index grade 0-3 (Table 4)): 1.14 ± 0.38
Mobility (appearance behavior score) ([3]; index grade 0-3 (Table 4)): 1.43 ± 0.53
IL-1β (pg/mL) in peripheral blood [4]: 254.04 ± 59.15 pg/mL
IL-6 (pg/mL) in peripheral blood [4]: 28.21 ± 8.67 pg/mL
TNF-α (pg/mL) in peripheral blood [4]: 145.14 ± 30.98 pg/mL
Pharyngeal lesions: number of animals in grade + [5, 6]: 6
Pharyngeal lesions: number of animals in grade ++ [5, 6]: 1
Pharyngeal lesions: number of animals in grade +++ [5, 6]: 0
Pharyngeal lesions: number of animals in grade − [5, 6]: 0
Pharyngeal inflammatory response grade of most animals ([5]; summary of Table 6): +

C[C@@H]1C[C@H]2[C@@H]3CCC4=CC(=O)C=C[C@]4(C)[C@@]3(F)[C@@H](O)C[C@]2(C)[C@@]1(O)C(=O)CO [Dex, Dexamethasone]
NF-κB luciferase activity of 293T cells (NF-κB): 968.61

CC(C)(C)c1cc(O)ccc1O [tBHQ, Tertiary butylhydroquinone]
ARE luciferase activity of 293T cells (ARE): 3.55
